Measurements taken from US8846719B2, “Isoxazolo-pyridine derivatives” (Roche Palo Alto LLC, priority 2007, dated 2014).
Like-named read-outs stand apart in the source and are kept apart here.

Molecular target: human GABA A receptor α5β3γ2 (Homo sapiens (Human), UniProt P18507+P31644)
Experiment: [3H]flumazenil competition binding assay, human GABA A α5β3γ2 receptors expressed in HEK293 cells
How it was run: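 Competition for [3H]flumazenil binding on membranes of HEK293 cells transiently transfected with human α5β3γ2 receptors, in Krebs-tris buffer pH 7.5.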

[1] = human receptor, displacement of [3H]flumazenil (0.5 nM), means of two determinations, read-out: hKi GABAAa5

| Structure (SMILES) | Ki [1] [nM] | Ki [nM] |
| --- | --- | --- |
| Cc1onc(-c2cccc(Cl)c2)c1COc1ccc(C(=O)NC2CC2)cn1 [Example 100, 6-[3-(3-Chloro-phenyl)-5-methyl-isoxazol-4-ylmethoxy]-N-cyclopropyl-nicotinamide] | 7.6 |  |
| Cc1onc(-c2cccc(Cl)c2)c1COc1ccc(C(=O)NC2CCOCC2)cn1 [Example 101, 6-[3-(3-Chloro-phenyl)-5-methyl-isoxazol-4-ylmethoxy]-N-(tetrahydro-pyran-4-yl)-nicotinamide] | 3.9 |  |
| Cc1onc(-c2cccc(Cl)c2)c1COc1ccc(C(=O)N2CCS(=O)(=O)CC2)cn1 [Example 102, {6-[3-(3-Chloro-phenyl)-5-methyl-isoxazol-4-ylmethoxy]-pyridin-3-yl}-(1,1-dioxo-1λ6-thiomorpholin-4-yl)-methanone] | 19.5 |  |
| COC(=O)c1ccc(OCc2c(-c3ccc(F)cc3)noc2C)nc1 [Example 103, 6-[3-(4-Fluoro-phenyl)-5-methyl-isoxazol-4-ylmethoxy]-nicotinic acid methyl ester] | 16.2 |  |
| Cc1onc(-c2ccc(F)cc2)c1COc1ccc(C(=O)O)cn1 [Example 104, 6-[3-(4-Fluoro-phenyl)-5-methyl-isoxazol-4-ylmethoxy]-nicotinic acid] | 39.5 |  |
| Cc1onc(-c2ccc(F)cc2)c1COc1ccc(C(=O)NCC(F)(F)F)cn1 [Example 105, 6-[3-(4-Fluoro-phenyl)-5-methyl-isoxazol-4-ylmethoxy]-N-(2,2,2-trifluoro-ethyl)-nicotinamide] | 1.2 |  |
| Cc1onc(-c2ccc(F)cc2)c1COc1ccc(C(=O)NCC2CC2)cn1 [Example 106, N-Cyclopropylmethyl-6-[3-(4-fluoro-phenyl)-5-methyl-isoxazol-4-ylmethoxy]-nicotinamide] | 1.5 |  |
| Cc1onc(-c2ccc(F)cc2)c1COc1ccc(C(=O)NC(C)C)cn1 [Example 107, 6-[3-(4-Fluoro-phenyl)-5-methyl-isoxazol-4-ylmethoxy]-N-isopropyl-nicotinamide] | 0.7 |  |
| Cc1onc(-c2ccc(F)cc2)c1COc1ccc(C(=O)NC2CC2)cn1 [Example 108, N-Cyclopropyl-6-[3-(4-fluoro-phenyl)-5-methyl-isoxazol-4-ylmethoxy]-nicotinamide] | 1.1 |  |
| Cc1onc(-c2ccc(F)cc2)c1COc1ccc(C(=O)NC2CCOCC2)cn1 [Example 109, 6-[3-(4-Fluoro-phenyl)-5-methyl-isoxazol-4-ylmethoxy]-N-(tetrahydro-pyran-4-yl)-nicotinamide] | 0.8 |  |
| Cc1onc(-c2ccc(F)cc2)c1COc1ccc(C(=O)N2CCOCC2)cn1 [Example 110, {6-[3-(4-Fluoro-phenyl)-5-methyl-isoxazol-4-ylmethoxy]-pyridin-3-yl}-morpholin-4-yl-methanone] | 13 |  |
| Cc1onc(-c2ccc(F)cc2)c1COc1ccc(C(=O)N2CCSCC2)cn1 [Example 111, {6-[3-(4-Fluoro-phenyl)-5-methyl-isoxazol-4-ylmethoxy]-pyridin-3-yl}-thiomorpholin-4-yl-methanone] | 10.4 |  |
| Cc1onc(-c2ccc(F)cc2)c1COc1ccc(C2(O)COC2)cn1 [Example 113, 3-{6-[3-(4-Fluoro-phenyl)-5-methyl-isoxazol-4-ylmethoxy]-pyridin-3-yl}-oxetan-3-ol] | 20.9 |  |
| Cc1onc(-c2ccc(F)cc2)c1COc1ccc(C(=O)N2C[C@H]3C[C@@H](C2)O3)cn1 [Example 114, {6-[3-(4-Fluoro-phenyl)-5-methyl-isoxazol-4-ylmethoxy]-pyridin-3-yl}-(1R,5S)-6-oxa-3-aza-bicyclo [3.1.1]hept-3-yl-methanone] |  | 42.6 |
| COC(=O)c1ccc(OCc2c(-c3ccc(Cl)cc3)noc2C)nc1 [Example 115, 6-[3-(4-Chloro-phenyl)-5-methyl-isoxazol-4-ylmethoxy]-nicotinic acid methyl ester] | 4.5 |  |
| Cc1onc(-c2ccc(Cl)cc2)c1COc1ccc(C(=O)O)cn1 [Example 116, 6-[3-(4-Chloro-phenyl)-5-methyl-isoxazol-4-ylmethoxy]-nicotinic acid] | 22.3 |  |
| Cc1onc(-c2ccc(Cl)cc2)c1COc1ccc(C(=O)NCC(F)(F)F)cn1 [Example 117, 6-[3-(4-Chloro-phenyl)-5-methyl-isoxazol-4-ylmethoxy]-N-(2,2,2-trifluoro-ethyl)-nicotinamide] | 2.1 |  |
| Cc1onc(-c2ccc(Cl)cc2)c1COc1ccc(C(=O)NCC2CC2)cn1 [Example 118, 6-[3-(4-Chloro-phenyl)-5-methyl-isoxazol-4-ylmethoxy]-N-cyclopropylmethyl-nicotinamide] | 1.3 |  |
| Cc1onc(-c2ccc(Cl)cc2)c1COc1ccc(C(=O)NC(C)C)cn1 [Example 119, 6-[3-(4-Chloro-phenyl)-5-methyl-isoxazol-4-ylmethoxy]-N-isopropyl-nicotinamide] | 0.7 |  |
| Cc1onc(-c2ccc(Cl)cc2)c1COc1ccc(C(=O)NC2CC2)cn1 [Example 120, 6-[3-(4-Chloro-phenyl)-5-methyl-isoxazol-4-ylmethoxy]-N-cyclopropyl-nicotinamide] | 1.1 |  |

| Structure (SMILES) | Ki [1] [nM] | Ki [nM] |
| --- | --- | --- |
| Cc1onc(-c2ccc(Cl)cc2)c1COc1ccc(C(=O)NC2CCOCC2)cn1 [Example 121, 6-[3-(4-Chloro-phenyl)-5-methyl-isoxazol-4-ylmethoxy]-N-(tetrahydro-pyran-4-yl)-nicotinamide] | 0.8 |  |
| Cc1onc(-c2ccc(Cl)cc2)c1COc1ccc(C(=O)N2CCS(=O)(=O)CC2)cn1 [Example 122, {6-[3-(4-Chloro-phenyl)-5-methyl-isoxazol-4-ylmethoxy]-pyridin-3-yl}-(1,1-dioxo-1,6-thiomorpholin-4-yl)-methanone] | 2.9 |  |
| Cc1onc(-c2ccc(Cl)cc2)c1COc1ccc(C(=O)N2CCSCC2)cn1 [Example 124, {6-[3-(4-Chloro-phenyl)-5-methyl-isoxazol-4-ylmethoxy]-pyridin-3-yl}-thiomorpholin-4-yl-methanone] | 7.5 |  |
| Cc1onc(-c2ccc(F)c(F)c2)c1COc1ccc(C(=O)NCC(F)(F)F)cn1 [Example 125, 6-[3-(3,4-Difluoro-phenyl)-5-methyl-isoxazol-4-ylmethoxy]-N-(2,2,2-trifluoro-ethyl)-nicotinamide] | 2.7 |  |
| Cc1onc(-c2ccc(F)c(F)c2)c1COc1ccc(C(=O)NC(C)C)cn1 [Example 126, 6-[3-(3,4-Difluoro-phenyl)-5-methyl-isoxazol-4-ylmethoxy]-N-isopropyl-nicotinamide] | 4.7 |  |
| Cc1onc(-c2ccc(F)c(F)c2)c1COc1ccc(C(=O)NC2CCOCC2)cn1 [Example 127, 6-[3-(3,4-Difluoro-phenyl)-5-methyl-isoxazol-4-ylmethoxy]-N-(tetrahydro-pyran-4-yl)-nicotinamide] | 2.4 |  |
| COC(=O)c1ccc(OCc2c(-c3ccccc3)noc2C(F)(F)F)nc1 [Example 128, 6-(3-Phenyl-5-trifluoromethyl-isoxazol-4-ylmethoxy)-nicotinic acid methyl ester] | 88.5 |  |
| CNC(=O)c1ccc(OCc2c(-c3ccccc3)noc2C(F)(F)F)nc1 [Example 129, N-Methyl-6-(3-phenyl-5-trifluoromethyl-isoxazol-4-ylmethoxy)-nicotinamide] | 24.3 |  |
| CCNC(=O)c1ccc(OCc2c(-c3ccccc3)noc2C(F)(F)F)nc1 [Example 130, N-Ethyl-6-(3-phenyl-5-trifluoromethyl-isoxazol-4-ylmethoxy)-nicotinamide] | 30.8 |  |
| O=C(NCCO)c1ccc(OCc2c(-c3ccccc3)noc2C(F)(F)F)nc1 [Example 131, N-(2-Hydroxy-ethyl)-6-(3-phenyl-5-trifluoromethyl-isoxazol-4-ylmethoxy)-nicotinamide] | 34 |  |
| O=C(NCC1CC1)c1ccc(OCc2c(-c3ccccc3)noc2C(F)(F)F)nc1 [Example 132, N-Cyclopropylmethyl-6-(3-phenyl-5-trifluoromethyl-isoxazol-4-ylmethoxy)-nicotinamide] | 28.3 |  |
| CC(C)NC(=O)c1ccc(OCc2c(-c3ccccc3)noc2C(F)(F)F)nc1 [Example 133, N-Isopropyl-6-(3-phenyl-5-trifluoromethyl-isoxazol-4-ylmethoxy)-nicotinamide] | 41.6 |  |
| O=C(NC1CC1)c1ccc(OCc2c(-c3ccccc3)noc2C(F)(F)F)nc1 [Example 134, N-Cyclopropyl-6-(3-phenyl-5-trifluoromethyl-isoxazol-4-ylmethoxy)-nicotinamide] | 23.8 |  |
| O=C(NC1CCOCC1)c1ccc(OCc2c(-c3ccccc3)noc2C(F)(F)F)nc1 [Example 135, 6-(3-Phenyl-5-trifluoromethyl-isoxazol-4-ylmethoxy)-N-(tetrahydro-pyran-4-yl)-nicotinamide] | 22.1 |  |
| COC(=O)c1ccc(OCc2c(-c3ccc(F)cc3)noc2C(F)(F)F)nc1 [Example 136, 6-[3-(4-Fluoro-phenyl)-5-trifluoromethyl-isoxazol-4-ylmethoxy]-nicotinic acid methyl ester] | 57 |  |
| CNC(=O)c1ccc(OCc2c(-c3ccc(F)cc3)noc2C(F)(F)F)nc1 [Example 137, 6-[3-(4-Fluoro-phenyl)-5-trifluoromethyl-isoxazol-4-ylmethoxy]-N-methyl-nicotinamide] | 19.8 |  |
| CCNC(=O)c1ccc(OCc2c(-c3ccc(F)cc3)noc2C(F)(F)F)nc1 [Example 138, N-Ethyl-6-[3-(4-fluoro-phenyl)-5-trifluoromethyl-isoxazol-4-ylmethoxy]-nicotinamide] | 33.3 |  |
| O=C(NCCO)c1ccc(OCc2c(-c3ccc(F)cc3)noc2C(F)(F)F)nc1 [Example 139, 6-[3-(4-Fluoro-phenyl)-5-trifluoromethyl-isoxazol-4-ylmethoxy]-N-(2-hydroxy-ethyl)-nicotinamide] | 16.5 |  |
| O=C(NCC(F)(F)F)c1ccc(OCc2c(-c3ccc(F)cc3)noc2C(F)(F)F)nc1 [Example 140, 6-[3-(4-Fluoro-phenyl)-5-trifluoromethyl-isoxazol-4-ylmethoxy]-N-(2,2,2-trifluoro-ethyl)-nicotinamide] | 57.8 |  |
| O=C(NCC1CC1)c1ccc(OCc2c(-c3ccc(F)cc3)noc2C(F)(F)F)nc1 [Example 141, N-Cyclopropylmethyl-6-[3-(4-fluoro-phenyl)-5-trifluoromethyl-isoxazol-4-ylmethoxy]-nicotinamide] | 22.5 |  |
